Data published in patent publication US8815882B2, “Pyrazole aminopyrimidine derivatives as LRRK2 modulators” (Genentech, Inc., priority 2010, dated 2014).

Target: T1, LRRK2 (Homo sapiens, UniProt Q5S007, G2019S)
T1 construct: purchased Invitrogen PV4882 (lot 567054A)
Assay: In Vitro LRRK2 Assay (LabChip 3000, fluorescently-labeled peptide substrate, ATP)
Format: biochemical
Conditions: Table 10; LRRK2 Ki (micromolar); read-out: LRRK2 Ki (KI)
Procedure, shortened: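 Read-out was LabChip capillary electrophoresis, resolving phospho- from non-phospho-peptide by fluorescence intensity. The kinase reaction combined enzyme, ATP, test compound and labeled peptide (4 μM working dilution) for 2 h in darkness before stop solution. Values were reported as Ki, from a tight-binding model with Et, S and Km, or as IC50 or percent inhibition.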

T1 sequence (Q5S007 whole entry G2019S): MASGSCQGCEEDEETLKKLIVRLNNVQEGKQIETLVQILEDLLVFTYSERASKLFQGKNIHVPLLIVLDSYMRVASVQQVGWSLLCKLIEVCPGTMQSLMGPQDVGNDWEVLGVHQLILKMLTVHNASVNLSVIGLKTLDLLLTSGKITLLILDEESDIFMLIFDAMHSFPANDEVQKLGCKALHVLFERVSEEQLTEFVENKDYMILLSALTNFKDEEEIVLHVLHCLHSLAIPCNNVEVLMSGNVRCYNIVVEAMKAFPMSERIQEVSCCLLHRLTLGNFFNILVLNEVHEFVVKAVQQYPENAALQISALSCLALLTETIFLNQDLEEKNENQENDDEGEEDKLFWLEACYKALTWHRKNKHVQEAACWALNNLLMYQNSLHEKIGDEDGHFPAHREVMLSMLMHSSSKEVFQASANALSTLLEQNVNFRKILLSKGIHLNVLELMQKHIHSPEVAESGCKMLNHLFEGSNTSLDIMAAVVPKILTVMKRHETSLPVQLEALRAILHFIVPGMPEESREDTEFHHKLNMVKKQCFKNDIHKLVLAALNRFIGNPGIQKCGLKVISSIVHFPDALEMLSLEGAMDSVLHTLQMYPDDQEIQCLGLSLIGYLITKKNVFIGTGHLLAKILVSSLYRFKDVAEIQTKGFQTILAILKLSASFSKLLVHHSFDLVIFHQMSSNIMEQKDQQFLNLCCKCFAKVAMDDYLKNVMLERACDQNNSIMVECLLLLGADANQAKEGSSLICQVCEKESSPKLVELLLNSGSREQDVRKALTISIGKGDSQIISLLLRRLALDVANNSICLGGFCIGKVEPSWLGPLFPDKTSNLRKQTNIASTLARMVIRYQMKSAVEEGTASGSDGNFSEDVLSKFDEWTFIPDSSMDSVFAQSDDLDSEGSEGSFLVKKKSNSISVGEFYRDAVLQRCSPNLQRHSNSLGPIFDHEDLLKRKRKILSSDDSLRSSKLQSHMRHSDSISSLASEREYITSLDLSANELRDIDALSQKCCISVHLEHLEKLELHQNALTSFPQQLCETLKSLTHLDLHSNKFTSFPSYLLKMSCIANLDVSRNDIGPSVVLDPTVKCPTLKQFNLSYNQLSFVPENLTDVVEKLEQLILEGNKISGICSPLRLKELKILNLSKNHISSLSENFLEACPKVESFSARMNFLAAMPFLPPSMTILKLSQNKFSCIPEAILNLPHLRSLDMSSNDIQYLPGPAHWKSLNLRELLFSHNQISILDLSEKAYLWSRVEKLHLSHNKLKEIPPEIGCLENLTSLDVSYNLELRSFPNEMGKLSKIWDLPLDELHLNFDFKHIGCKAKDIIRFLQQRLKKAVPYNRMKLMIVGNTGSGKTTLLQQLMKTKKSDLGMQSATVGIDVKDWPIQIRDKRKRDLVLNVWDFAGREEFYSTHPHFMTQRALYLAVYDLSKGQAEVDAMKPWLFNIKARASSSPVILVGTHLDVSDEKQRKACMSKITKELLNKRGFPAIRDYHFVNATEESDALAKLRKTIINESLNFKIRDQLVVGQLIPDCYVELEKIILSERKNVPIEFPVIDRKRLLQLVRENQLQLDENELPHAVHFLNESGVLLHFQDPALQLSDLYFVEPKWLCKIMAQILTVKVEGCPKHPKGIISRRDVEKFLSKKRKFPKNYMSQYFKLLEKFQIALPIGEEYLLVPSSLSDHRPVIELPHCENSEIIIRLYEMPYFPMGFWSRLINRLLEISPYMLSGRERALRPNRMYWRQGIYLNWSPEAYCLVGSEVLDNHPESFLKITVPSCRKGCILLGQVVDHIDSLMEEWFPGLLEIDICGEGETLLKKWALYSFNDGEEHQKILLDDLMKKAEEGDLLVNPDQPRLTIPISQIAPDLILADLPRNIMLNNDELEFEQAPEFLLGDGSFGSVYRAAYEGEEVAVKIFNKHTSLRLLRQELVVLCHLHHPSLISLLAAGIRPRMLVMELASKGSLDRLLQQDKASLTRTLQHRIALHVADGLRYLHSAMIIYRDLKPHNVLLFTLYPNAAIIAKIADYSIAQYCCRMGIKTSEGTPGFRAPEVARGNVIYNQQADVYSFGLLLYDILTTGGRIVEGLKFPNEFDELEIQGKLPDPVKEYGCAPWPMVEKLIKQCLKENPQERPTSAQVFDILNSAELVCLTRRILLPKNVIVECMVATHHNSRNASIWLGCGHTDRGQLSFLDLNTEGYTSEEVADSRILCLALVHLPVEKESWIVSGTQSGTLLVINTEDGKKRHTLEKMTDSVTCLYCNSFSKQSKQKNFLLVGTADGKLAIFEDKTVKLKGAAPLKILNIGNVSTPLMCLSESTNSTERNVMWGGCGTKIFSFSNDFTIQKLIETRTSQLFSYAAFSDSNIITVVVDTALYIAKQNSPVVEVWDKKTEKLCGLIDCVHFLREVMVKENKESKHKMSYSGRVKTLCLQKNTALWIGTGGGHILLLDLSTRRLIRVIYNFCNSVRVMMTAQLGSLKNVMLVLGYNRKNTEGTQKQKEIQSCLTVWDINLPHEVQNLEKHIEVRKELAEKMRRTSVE

SMILES	Ki [nM]
COc1nc(Nc2cn(C(C)(C)C#N)nc2C2CC2)ncc1Cl [Example 438, 2-[4-(5-Chloro-4-methoxy-pyrimidin-2-ylamino)-3-cyclopropyl-pyrazol-1-yl]-2-methyl-propionitrile]	5.8
CNc1nc(Nc2cnn([C@H](C)C#N)c2C)ncc1C(F)(F)F [Example 439, (R)-2-[5-Methyl-4-(4-methylamino-5-trifluoromethyl-pyrimidin-2-ylamino)-pyrazol-1-yl]-propionitrile]	1.6
CCNC(=O)C(C)(C)n1cc(Nc2ncc(C(F)(F)F)c(NC)n2)c(C)n1 [Example 440, N-Ethyl-2-[3-methyl-4-(4-methylamino-5-trifluoromethyl-pyrimidin-2-ylamino)-pyrazol-1-yl]-isobutyramide]	9.5
CCNC(=O)C1(n2ncc(Nc3ncc(C(F)(F)F)c(NC)n3)c2C)CCC1 [Example 442, 1-[5-Methyl-4-(4-methylamino-5-trifluoromethyl-pyrimidin-2-ylamino)-pyrazol-1-yl]-cyclobutane-carboxylic acid ethylamide]	15.6
CNc1nc(Nc2cnn(C(C)(C)C(=O)NCC(F)(F)F)c2C)ncc1C(F)(F)F [Example 443, 2-[5-Methyl-4-(4-methylamino-5-trifluoromethyl-pyrimidin-2-ylamino)-pyrazol-1-yl]-N-(2,2,2-trifluoro-ethyl)-isobutyramide]	66.6
CNc1nc(Nc2cnn(C3(C#N)CCC3)c2C)ncc1C(F)(F)F [Example 446, 1-[5-Methyl-4-(4-methylamino-5-trifluoromethyl-pyrimidin-2-ylamino)-pyrazol-1-yl]-cyclobutane-carbonitrile]	2.4
CNc1nc(Nc2cnn(C(C)(C)C(=O)NC(C)(C)C)c2C)ncc1C(F)(F)F [Example 447, N-tert-Butyl-2-[5-methyl-4-(4-methylamino-5-trifluoromethyl-pyrimidin-2-ylamino)-pyrazol-1-yl]-isobutyramide]	67
CCNc1nc(Nc2cnn(C(C)(C)C(=O)NC)c2C)ncc1C(F)(F)F [Example 448, 2-[4-(4-Ethylamino-5-trifluoromethyl-pyrimidin-2-ylamino)-5-methyl-pyrazol-1-yl]-N-methyl-isobutyramide]	15.3
CNC(=O)C(C)(C)n1cc(Nc2ncc(C(F)(F)F)c(NC3CC3)n2)c(C)n1 [Example 449, 2-[4-(4-Cyclopropylamino-5-trifluoromethyl-pyrimidin-2-ylamino)-3-methyl-pyrazol-1-yl]-N-methyl-isobutyramide]	1.3
CNC(=O)C(C)(C)n1ncc(Nc2ncc(C(F)(F)F)c(NC3CC3)n2)c1C [Example 450, 2-[4-(4-Cyclopropylamino-5-trifluoromethyl-pyrimidin-2-ylamino)-5-methyl-pyrazol-1-yl]-N-methyl-isobutyramide]	7.1
CCNc1nc(Nc2cn(C(C)(C)C#N)nc2C)ncc1C(F)(F)F [Example 451, 2-[4-(4-Ethylamino-5-trifluoromethyl-pyrimidin-2-ylamino)-3-methyl-pyrazol-1-yl]-2-methyl-propionitrile]	0.3
CCNc1nc(Nc2cn(C(C)(C)C(=O)NC)nc2C)ncc1C(F)(F)F [Example 453, 2-[4-(4-Ethylamino-5-trifluoromethyl-pyrimidin-2-ylamino)-3-methyl-pyrazol-1-yl]-N-methyl-isobutyramide]	9.2
